Source: PubChem BioAssay AID1259407 (Chemical Carcinogenesis Research Information System (CCRIS), 2018)
Activity calls are given as the source filed them. No rule for the calls is given here.

Tested on: CCRIS mutagenicity, Ames/micronucleus/aberration tests
Test: CCRIS mutagenicity studies
[1] = Test System: AMES SALMONELLA TYPHIMURIUM, Strain/Indicator: TA98, Metabolic Activation: NONE, Method: STANDARD PLATE
[2] = Test System: AMES SALMONELLA TYPHIMURIUM, Strain/Indicator: TA98, Metabolic Activation: RAT, LIVER, S-9, AROCLOR 1254, Method: STANDARD PLATE
[3] = Test System: AMES SALMONELLA TYPHIMURIUM, Strain/Indicator: TA100, Metabolic Activation: NONE, Method: STANDARD PLATE
[4] = Test System: AMES SALMONELLA TYPHIMURIUM, Strain/Indicator: TA100, Metabolic Activation: RAT, LIVER, S-9, AROCLOR 1254, Method: STANDARD PLATE
[5] = Test System: AMES SALMONELLA TYPHIMURIUM, Strain/Indicator: TA1538, Metabolic Activation: NONE, Method: STANDARD PLATE
[6] = Test System: AMES SALMONELLA TYPHIMURIUM, Strain/Indicator: TA1538, Metabolic Activation: RAT, LIVER, S-9, AROCLOR 1254, Method: STANDARD PLATE

Measured: mutagenic call

CC1(C)[C@@H](O[C@H]2O[C@H](C(=O)O)[C@@H](O)[C@H](O)[C@H]2O[C@@H]2O[C@H](C(=O)O)[C@@H](O)[C@H](O)[C@H]2O)CC[C@]2(C)[C@H]3C(=O)C=C4[C@@H]5C[C@@](C)(C(=O)O)CC[C@]5(C)CC[C@@]4(C)[C@]3(C)CC[C@@H]12
inactive: End Point: IN VIVO MICRONUCLEUS, Test System: BONE MARROW POLYCHROMATIC ERYTHROCYTES, Species: MOUSE, Strain/Sex: DDY/MALE, Route: IP inactive; negative | Test System: AMES SALMONELLA TYPHIMURIUM, Strain/Indicator: TA97A, Metabolic Activation: NONE, Method: PREINCUBATION inactive; negative | Test System: AMES SALMONELLA TYPHIMURIUM, Strain/Indicator: TA97A, Metabolic Activation: RAT, LIVER, S-9, AROCLOR 1254, Method: PREINCUBATION inactive; negative | [1] inactive; negative | [2] inactive; negative | [3] inactive; negative | [4] inactive; negative | Test System: AMES SALMONELLA TYPHIMURIUM, Strain/Indicator: TA102, Metabolic Activation: NONE, Method: PREINCUBATION inactive; negative | Test System: AMES SALMONELLA TYPHIMURIUM, Strain/Indicator: TA102, Metabolic Activation: RAT, LIVER, S-9, AROCLOR 1254, Method: PREINCUBATION inactive; negative | Test System: AMES SALMONELLA TYPHIMURIUM, Strain/Indicator: TA1535, Metabolic Activation: NONE, Method: STANDARD PLATE inactive; negative | Test System: AMES SALMONELLA TYPHIMURIUM, Strain/Indicator: TA1535, Metabolic Activation: RAT, LIVER, S-9, AROCLOR 1254, Method: STANDARD PLATE inactive; negative | Test System: AMES SALMONELLA TYPHIMURIUM, Strain/Indicator: TA1537, Metabolic Activation: NONE, Method: STANDARD PLATE inactive; negative | Test System: AMES SALMONELLA TYPHIMURIUM, Strain/Indicator: TA1537, Metabolic Activation: RAT, LIVER, S-9, AROCLOR 1254, Method: STANDARD PLATE inactive; negative | [5] inactive; negative | [6] inactive; negative | Test System: E. COLI, Strain/Indicator: WP2, Metabolic Activation: NONE, Method: STANDARD PLATE inactive; negative | Test System: E. COLI, Strain/Indicator: WP2, Metabolic Activation: RAT, LIVER, S-9, AROCLOR 1254, Method: STANDARD PLATE inactive; negative

N=C1C=CC2=CC(S(=O)(=O)O)=CC(=O)C2=C1NNc1ccc(-c2ccc(N=Nc3cc(S(=O)(=O)O)c4ccccc4c3N)cc2)cc1
active: Test System: AMES SALMONELLA TYPHIMURIUM, Strain/Indicator: TA98, Metabolic Activation: HAMSTER, LIVER, S-9, Method: PREINCUBATION (PRIVAL METHOD) active; positive

Nc1ccc2cc(S(=O)(=O)O)c(N=Nc3ccc(N=Nc4ccccc4)cc3OCCO)c(O)c2c1
active: [2] active; positive | [4] active; positive | [6] active; positive
inactive: [1] inactive; negative | [3] inactive; negative | [5] inactive; negative

CCC(C)c1ccccc1OC(=O)N(C)N=O (centres undefined)
active: Test System: E. COLI WP2, Strain/Indicator: WP2, Metabolic Activation: NONE, Method: STANDARD PLATE active; positive

O=C/C(=C(/Cl)C(=O)O)C(Cl)Cl
active: Test System: AMES SALMONELLA TYPHIMURIUM, Strain/Indicator: TA98, Metabolic Activation: NONE, Method: PREINCUBATION active; positive | [1] active; positive | Test System: AMES SALMONELLA TYPHIMURIUM, Strain/Indicator: TA100, Metabolic Activation: NONE, Method: PREINCUBATION active; positive | [3] active; positive | Test System: AMES SALMONELLA TYPHIMURIUM, Strain/Indicator: TA104, Metabolic Activation: NONE, Method: PREINCUBATION active; positive
inactive: Test System: AMES SALMONELLA TYPHIMURIUM, Strain/Indicator: TA97, Metabolic Activation: NONE, Method: STANDARD PLATE inactive; negative | Test System: AMES SALMONELLA TYPHIMURIUM, Strain/Indicator: TA97, Metabolic Activation: RAT, LIVER, S-9, PHENOBARBITAL, Method: STANDARD PLATE inactive; negative | Test System: AMES SALMONELLA TYPHIMURIUM, Strain/Indicator: TA98, Metabolic Activation: RAT, LIVER, S-9, PHENOBARBITAL, Method: STANDARD PLATE inactive; negative | Test System: AMES SALMONELLA TYPHIMURIUM, Strain/Indicator: TA100, Metabolic Activation: RAT, LIVER, S-9, PHENOBARBITAL, Method: STANDARD PLATE inactive; negative
